# Experimental data: patent US20060069132A1, “Azolecarboxamide herbicides” (priority 2004, published 2006)
# Read-outs that look alike come from different tables or passages of the source.
# Tests used:
# large crabgrass = assay: Test A pre-/postemergence herbicide test; assay type: in vivo, Digitaria sanguinalis; settings: for pest or weed control at 500 g/ha / pest or weed control at 2000 g/ha: Digitaria sanguinalis, 240 h
# Summary of the method: (§1)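 Plants are held in greenhouse about ten days after treatment, then compared with untreated controls and scored 0 (no effect) to 100 (complete control). Preemergence dosing is a directed soil spray on sown sandy loam; postemergence dosing is spray to runoff at 2–10 cm height.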
# giant foxtail = assay: Test A pre-/postemergence herbicide test; assay type: in vivo, Setaria faberi; settings: for pest or weed control at 500 g/ha / pest or weed control at 2000 g/ha: Setaria faberi, 240 h
# Summary of the method: as §1
# redroot pigweed = assay: Test A pre-/postemergence herbicide test; assay type: in vivo, Amaranthus retroflexus; settings: for pest or weed control at 500 g/ha / pest or weed control at 2000 g/ha: Amaranthus retroflexus, 240 h
# Summary of the method: as §1
# rice = assay: Test B pre-/postemergence herbicide test; assay type: in vivo, Oryza sativa; settings: Oryza sativa, pre-emergence, 336 h, read-out: Plant response rating, Rice
# Summary of the method: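 Herbicidal effect was judged by eye on a 0–100 scale after plants stood 13 to 15 days in the greenhouse following pre- or postemergence treatment with surfactant-containing formulations.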
# lambsquarters = assay: Test C pre-/postemergence herbicide test; assay type: in vivo, Chenopodium album; settings: for Lambsquarters plant response rating: 500 g ai/ha
# Summary of the method: (§2)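 Greenhouse-grown plants were evaluated visually 12 to 14 days after treatment, with 100 meaning complete control and 0 no effect. Application was preemergence, or postemergence at 2 to 18 cm.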
# barnyardgrass = assay: Test C flooded paddy test; assay type: in vivo, Echinochloa crus-galli; settings: for Plant response rating, Barnyardgrass: 500 g ai/ha, visual rating after 12 to 14 days
# Summary of the method: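 After a postemergence application at 1 to 4 leaves (plants 2–18 cm high), or at 2 leaves for barnyardgrass in flooded paddy, plants stayed in the greenhouse for 12 to 14 days. Damage was then judged visually relative to control plants, with 100 indicating complete control.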
# johnsongrass = assay: Test C pre-/postemergence herbicide test; assay type: in vivo, Sorghum halepense; settings: for Johnsongrass plant response rating: 500 g ai/ha
# Summary of the method: as §2
# woolly cupgrass = assay: Test C pre-/postemergence herbicide test; assay type: in vivo, Eriochloa villosa; settings: for Cupgrass, Woolly plant response rating: 500 g ai/ha
# Summary of the method: as §2
# yellow nutsedge = assay: Test C pre-/postemergence herbicide test; assay type: in vivo, Cyperus esculentus; settings: for Nutsedge, Yellow plant response rating: 500 g ai/ha
# Summary of the method: as §2
# [1] = Postemergence, 250 g ai/ha, scale 0 to 100, 0 no effect, 100 complete control
# [2] = postemergence, 125 g ai/ha, scale 0 to 100
# [3] = postemergence, 62 g ai/ha, scale 0 to 100
# [4] = Postemergence, 500 g ai/ha, 0 to 100 scale, 0 no effect, 100 complete control
# [5] = Postemergence, 2000 g ai/ha, 0 to 100 scale, 0 no effect, 100 complete control
# [6] = Preemergence, 500 g ai/ha, visual rating, 0 to 100 scale (0 no effect, 100 complete control)
# [7] = Preemergence, 2000 g ai/ha, visual rating, 0 to 100 scale (0 no effect, 100 complete control)
# [8] = 62 g ai/ha, scale 0 to 100 (0 no effect, 100 complete control)
# [9] = 125 g ai/ha, scale of 0 to 100, 0 is no effect, 100 is complete control
# [10] = 250 g ai/ha, scale of 0 to 100, 0 is no effect, 100 is complete control
# [11] = scale 0 to 100 (0 no effect, 100 complete control)
# [12] = 125 g ai/ha, scale 0 (no effect) to 100 (complete control), visual, 12 to 14 days, preemergence
# [13] = Preemergence, scale 0 to 100, 0 no effect, 100 complete control
structure (smiles),measurement,setting,value
"CCn1nc(C(C)(C)C)cc1C(=O)Nc1cc(C(=O)OC)ccn1 [Compound 151, methyl 2-[[[3-(1,1-dimethylethyl)-1-ethyl-1H-pyrazol-5-yl]carbonyl]amino]-4-pyridinecarboxylate]",pest or weed control at 500 g/ha,"large crabgrass; post-emergence, Postemergence, 500 g ai/ha, 0 to 100 scale, 0 no effect, 100 complete control, read-out: Crabgrass, Large plant response rating",5%
same,pest or weed control at 2000 g/ha,"large crabgrass; post-emergence, Postemergence, 2000 g ai/ha, 0 to 100 scale, 0 no effect, 100 complete control, read-out: Plant response rating, Crabgrass, Large",10%
same,pest or weed control at 500 g/ha,"large crabgrass; pre-emergence, Preemergence, 500 g ai/ha, visual rating, 0 to 100 scale (0 no effect, 100 complete control), read-out: Crabgrass, Large plant response rating",0%
same,pest or weed control at 2000 g/ha,"large crabgrass; pre-emergence, Preemergence, 2000 g ai/ha, visual rating, 0 to 100 scale (0 no effect, 100 complete control), read-out: Crabgrass, Large plant response rating",0%
same,pest or weed control at 500 g/ha,"giant foxtail; post-emergence, Postemergence, 500 g ai/ha, 0 to 100 scale, 0 no effect, 100 complete control, read-out: Foxtail, Giant plant response rating",10%
same,pest or weed control at 2000 g/ha,"giant foxtail; post-emergence, Postemergence, 2000 g ai/ha, 0 to 100 scale, 0 no effect, 100 complete control, read-out: Plant response rating, Foxtail, Giant",10%
same,pest or weed control at 500 g/ha,"giant foxtail; pre-emergence, Preemergence, 500 g ai/ha, visual rating, 0 to 100 scale (0 no effect, 100 complete control), read-out: Foxtail, Giant plant response rating",0%
same,pest or weed control at 2000 g/ha,"giant foxtail; pre-emergence, Preemergence, 2000 g ai/ha, visual rating, 0 to 100 scale (0 no effect, 100 complete control), read-out: Foxtail, Giant plant response rating",0%
same,pest or weed control at 500 g/ha,"redroot pigweed; post-emergence, Postemergence, 500 g ai/ha, 0 to 100 scale, 0 no effect, 100 complete control, read-out: Pigweed plant response rating",35%
same,pest or weed control at 2000 g/ha,"redroot pigweed; post-emergence, Postemergence, 2000 g ai/ha, 0 to 100 scale, 0 no effect, 100 complete control, read-out: Plant response rating, Pigweed",70%
same,pest or weed control at 2000 g/ha,"redroot pigweed; pre-emergence, Preemergence, 2000 g ai/ha, visual rating, 0 to 100 scale (0 no effect, 100 complete control), read-out: Pigweed plant response rating",0%
same,pest or weed control at 500 g/ha,"redroot pigweed; pre-emergence, preemergence, 500 g ai/ha, visual injury, 0 to 100 scale (0 no effect, 100 complete control), read-out: Pigweed plant response rating",0%
same,plant injury at 500 g/ha,"rice; 500 g ai/ha, visual rating 0-100, 0 no effect, 100 complete control",0%
same,plant injury at 125 g/ha,"rice; preemergence, 125 g ai/ha, 0 to 100 scale, 0 is no effect, 100 is complete control",0%
CC(=NO)c1cccc(NC(=O)c2cc(C(C)(C)C)nn2CC(F)(F)F)c1 [Compound 112],Lambsquarters plant response rating,"lambsquarters; Postemergence, scale 0 to 100",100
same,"Plant response rating, Lambsquarters",lambsquarters; [1],100
same,"Plant response rating, Lambsquarters",lambsquarters; [2],20
same,"Plant response rating, Lambsquarters",lambsquarters; [3],20
same,"Crabgrass, Large plant response rating",large crabgrass; [4],25
same,"Plant response rating, Crabgrass, Large",large crabgrass; [5],30
same,"Crabgrass, Large plant response rating",large crabgrass; [6],45
same,"Crabgrass, Large plant response rating",large crabgrass; [7],55
same,"Foxtail, Giant plant response rating",giant foxtail; [4],20
same,"Plant response rating, Foxtail, Giant",giant foxtail; [5],35
same,"Foxtail, Giant plant response rating",giant foxtail; [6],25
same,"Foxtail, Giant plant response rating",giant foxtail; [7],50
same,Barnyardgrass plant response rating,barnyardgrass; [8],0
same,Barnyardgrass plant response rating,barnyardgrass; [9],0
same,Barnyardgrass plant response rating,barnyardgrass; [10],10
same,"Plant response rating, Barnyardgrass",barnyardgrass; [11],30
same,Johnsongrass plant response rating,"johnsongrass; Postemergence, scale 0 to 100",60
same,"Plant response rating, Johnsongrass",johnsongrass; [1],50
same,"Plant response rating, Johnsongrass",johnsongrass; [2],20
same,"Plant response rating, Johnsongrass",johnsongrass; [3],20
same,Pigweed plant response rating,redroot pigweed; [4],40
same,"Plant response rating, Pigweed",redroot pigweed; [5],60
same,Pigweed plant response rating,redroot pigweed; [6],65
same,Pigweed plant response rating,redroot pigweed; [7],90
same,"Cupgrass, Woolly plant response rating","woolly cupgrass; Postemergence, scale 0 to 100",70
same,"Plant response rating, Cupgrass, Woolly",woolly cupgrass; [1],60
same,"Plant response rating, Cupgrass, Woolly",woolly cupgrass; [2],30
same,"Plant response rating, Cupgrass, Woolly",woolly cupgrass; [3],0
same,"Nutsedge, Yellow plant response rating","yellow nutsedge; Postemergence, scale 0 to 100",20
same,"Plant response rating, Nutsedge, Yellow",yellow nutsedge; [1],20
same,"Plant response rating, Nutsedge, Yellow",yellow nutsedge; [2],0
same,"Plant response rating, Nutsedge, Yellow",yellow nutsedge; [3],0
CC(=NO)c1cccc(NC(=O)c2cc(C(C)(C)C)nn2C)c1 [Compound 102],"Plant response rating (0 = no effect, 100 = complete control), Lambsquarters","lambsquarters; 62 g ai/ha, preemergence",0
same,"Plant response rating, Lambsquarters",lambsquarters; [12],70
same,Lambsquarters plant response rating,lambsquarters; [13],100
same,"Crabgrass, Large plant response rating",large crabgrass; [4],60
same,"Plant response rating, Crabgrass, Large",large crabgrass; [5],80
same,"Crabgrass, Large plant response rating",large crabgrass; [6],95
same,"Crabgrass, Large plant response rating",large crabgrass; [7],100
same,"Foxtail, Giant plant response rating",giant foxtail; [4],45
same,"Plant response rating, Foxtail, Giant",giant foxtail; [5],65
same,"Foxtail, Giant plant response rating",giant foxtail; [6],60
same,"Foxtail, Giant plant response rating",giant foxtail; [7],85
same,Barnyardgrass plant response rating,barnyardgrass; [8],10
same,Barnyardgrass plant response rating,barnyardgrass; [9],50
same,Barnyardgrass plant response rating,barnyardgrass; [10],50
same,"Plant response rating, Barnyardgrass",barnyardgrass; [11],70
same,"Plant response rating (0 = no effect, 100 = complete control), Johnsongrass","johnsongrass; 62 g ai/ha, preemergence",50
same,"Plant response rating, Johnsongrass",johnsongrass; [12],80
same,Johnsongrass plant response rating,johnsongrass; [13],100
same,Pigweed plant response rating,redroot pigweed; [4],95
same,"Plant response rating, Pigweed",redroot pigweed; [5],100
same,Pigweed plant response rating,redroot pigweed; [6],80
same,Pigweed plant response rating,redroot pigweed; [7],90
same,"Plant response rating (0 = no effect, 100 = complete control), Cupgrass, Woolly","woolly cupgrass; 62 g ai/ha, preemergence",0
same,"Plant response rating, Cupgrass, Woolly",woolly cupgrass; [12],10
same,"Plant response rating, Cupgrass, Woolly","woolly cupgrass; 250 g ai/ha, scale 0 to 100 (0 no effect, 100 complete control), visual, 12 to 14 days, preemergence",20
same,"Cupgrass, Woolly plant response rating",woolly cupgrass; [13],40
same,"Plant response rating (0 = no effect, 100 = complete control), Nutsedge, Yellow","yellow nutsedge; 62 g ai/ha, preemergence",0
same,"Plant response rating, Nutsedge, Yellow",yellow nutsedge; [12],0
same,"Nutsedge, Yellow plant response rating",yellow nutsedge; [13],30
